The values that follow are results of earlier work, collected in patent US20140228364A1, “Ophthalmic Compositions Comprising Prostaglandin F2 Alpha Derivatives and Hyaluronic Acid” (priority 2011, published 2014).

Each structure is given as a SMILES string.

Consider `CCCCC[C@H](O)/C=C/[C@H]1[C@H](O)CC(=O)[C@H]1C/C=C\CCCC(=O)O` [8-isoprostaglandin E2], for which the Solubility in water entry is listed as “almost insoluble in water”.
Consider `CC(C)OC(=O)CCC/C=C\C[C@@H]1[C@@H](CC[C@@H](O)CCc2ccccc2)[C@H](O)C[C@@H]1O` [Latanoprost, isopropyl-(Z)-7-[(1R,2R,3R,5S)-3,5-dihydroxy-2-[(3R)-3-hydroxy-5-phenylpentyl]cyclopentyl]-5-heptenoate], for which the Solubility in water entry is “almost insoluble in water”.
On to `CCNC(=O)CCC/C=C\C[C@@H]1[C@@H](/C=C/[C@@H](O)CCc2ccccc2)[C@H](O)C[C@@H]1O` [bimatoprost], for which the Solubility in water entry is reported as “almost insoluble in water”.
In the case of `CC(C)OC(=O)CCC/C=C\C[C@@H]1[C@@H](/C=C/C(F)(F)COc2ccccc2)[C@H](O)C[C@@H]1O` [tafluprost], the Solubility in water entry is listed as “almost insoluble in water”.
As for `CC(C)OC(=O)CCC/C=C\C[C@@H]1[C@@H](/C=C/[C@@H](O)COc2cccc(C(F)(F)F)c2)[C@H](O)C[C@@H]1O` [travoprost, 20-ethyl prostaglandin F2α-(+)-fluprostenol isopropyl ester], the Solubility in water entry is “almost insoluble in water”.
As to `CCCCCCCC(=O)CC[C@@H]1[C@@H](C/C=C\CCCC(=O)OC(C)C)[C@@H](O)C[C@H]1O` [unoprostone isopropyl, 13,14-dihydro-20-ethyl-15-ketoprostaglandin F2α-isopropylester], the Solubility in water result is “almost insoluble in water”.
